Results taken from US9446015B2, “Quinone based nitric oxide donating compounds for ophthalmic use” (NICOX SCIENCE IRELAND, priority 2012, dated 2016).
Where two headings read alike, the source gives them in different places.

Key:
[1] = system: hypertonic saline-induced IOP increase in rabbits; assay: IOP lowering activity in hypertonic saline-induced IOP increase in rabbits; format: in vivo, New Zealand White rabbits
Description: Intraocular pressure (IOP) lowering activity in hypertonic saline-induced IOP increase in rabbits.
This animal model of elevated IOP was used for assessing the intraocular pressure (IOP) lowering activities of some compounds of the invention, timolol, dorzolamide and 5-isosorbide mononitrate.
• compounds (6), (20) and (25) • timolol and dorzolamide that are drugs commonly used for the treatment of glaucoma and ocular hypertension. • Isosorbide mononitrate (5-ISMN) that is a commonly used nitric oxide donor drug.
(§1) Timolol, dorzolamide and 5-ISMN were tested as reference compounds. Adults male New Zealand White rabbits weighting 1.8-2.0 Kg were used in the experiments.
IOP was measured using a Tono-Pen XL prior to hypertonic saline injection (basal) and at 30, 60, 120 and 240 min thereafter. Vehicle (5% cremophor-EL; 0.3% DMSO; 0.2 mg/ml BAK in PBS pH 6.0) and all the tested compounds dissolved in the vehicle were instilled as eye drops immediately after hypertonic saline injection. Eyes were randomly assigned to different treatment groups. Vehicle and the tested compounds were directly instilled into the conjunctiva pocket at the desired doses. One drop of 0.4% oxybuprocaine hydrochloride (Novesine, Sandoz) was instilled in each eye immediately before each set of pressure measurements.
Results are reported in Table 6, the ocular hypotensive activities of the tested compounds are expressed as IOP change at 60 and 120 minutes after topical administration versus vehicle and versus the basal IOP.

[2] = system: lipidic peroxidation of membrane lipids in rat hepatocytes (hepatic microsomal membranes); assay: In vitro antioxidant activity (TBARS test); format: biochemical; details: read-out: Antioxidant activity IC50 μM (CL 95%)
Protocol: The antioxidant properties of compounds (6) (disclosed in example 1) and compound (23) (disclosed in example 19) and reference antioxidant compounds were assessed after NADPH-induced lipidic peroxidation of membrane lipids in rat hepatocytes using the detection of 2-thiobarbituric acid reactive substances (TBARS) by visible spectroscopy.
Hepatic microsomal membranes from male Wistar rats (200-250 g) were prepared by differential centrifugation (8000 g, 20 min; 120000 g, 1 h) in a HEPES/sucrose buffer (10 mM, 250 mM, pH 7.4) and stored at −80° C. Incubation was performed at 37° C. in a Tris-HCl/KCl (100 mM/150 mM, pH 7.4) containing microsomal membranes (2 mg prot/mL), sodium ascorbate (100 μM), and DMSO solutions of the tested compounds. Lipid peroxidation was initiated by adding ADP-FeCl3 and NADPH (Method A) or 2.5 μM FeSO4 (Method B) (as described by Boschi D. et al., J. Med. Chem. 2006, 49:2886-2897). Aliquots were taken from the incubation mixture at 5, 15, and 30 min and treated with trichloroacetic acid (TCA) 10% w/v. Lipid peroxidation was assessed by spectrophotometric (543 nm) determination of the TBARS consisting mainly of malondialdehyde (MDA). TBARS concentrations (expressed in nmol/mg protein) were obtained by interpolation with a MDA standard curve. The antioxidant activity of tested compounds was evaluated as the percent inhibition of TBARS production with respect to control samples, using the values obtained after 30 min of incubation. IC50 values were calculated by nonlinear regression analysis.

[3] = system: ocular normotensive New Zealand rabbits; assay: IOP lowering activity in ocular normotensive New Zealand rabbits; format: in vivo, New Zealand White rabbits
Protocol: Intraocular pressure (IOP) lowering activity in ocular normotensive New Zealand rabbits.
• compound (6) • timolol that is a drug commonly used for the treatment of glaucoma and ocular hypertension. • Isosorbide mononitrate (5-ISMN) that is a commonly used nitric oxide donor drug.
as §1
IOP was measured using a pneumatonometer 30 CLASSIC™ before topical application (basal) and a different time point (30, 60, 120, 240 and 300 min) thereafter. Vehicle (5% cremophor-EL; 0.3% DMSO; 0.2 mg/ml BAK in PBS pH 6.0) or tested compounds dissolved in the vehicle were instilled as eye drops into the conjunctiva pocket. Eyes were randomly assigned to different treatment groups. One drop of 0.4% oxybuprocaine hydrochloride (Novesine, Sandoz) was instilled in each eye immediately before each set of pressure measurements.
The test results are reported in Table 7, the ocular hypotensive activity is expressed as IOP changes at 30, 60, 120 and 300 minutes after topical administration versus vehicle and versus IOP at basal.

[4] = system: lipidic peroxidation of membrane lipids in rat hepatocytes (hepatic microsomal membranes); details: Method B; from Chegaev et al.; read-out: Antioxidant activity IC50 μM (CL 95%); cited from earlier work
[5] = system: rat L-NAME-induced hypertension; assay: Systolic blood pressure in rat L-NAME-induced hypertension, single oral dose; format: in vivo; details: for Delta vs basal (mmHg), systolic blood pressure: 5-ISMN 30 mg/kg oral
Protocol: To assess the in vivo NO-dependent activity, Compound (6) was evaluated for systolic blood pressure (SBP) reduction efficacy in a rat model of NO-deprivation induced by L-NAME and compared with 5-ISMN.
(§2) Fasted male SD rats (250-300 g, n=3-5 per group), obtained from Harlan Italy (Correzzana, Milan, Italy) were orally treated with tested compounds or vehicle (DMSO:Methocel 1% 2/98 v/v) in a total volume of 4 ml/kg by gavage. At each time point (1, 3, 6 and 24 h) animals were deeply anesthetized with Zoletil® 100 (3 mg/kg), given intramuscularly. Thereafter, a pressure catheter (Samba Sensors, Harvard Apparatus, UK) was introduced into the common carotid artery for central blood pressure measurement. Pressure transducer was connected to a personal computer, in order to allow real time monitor of the pressure tracing. After 10 minutes of basal recording, L-NAME (50 mg/kg) was administered intraperitoneally and the effect on SBP monitored. When the SBP stabilized (5 minutes without variations) the recording was stopped. To further confirm that functional activity was NO-dependent, at each time point blood ^15N-nitrite levels were measured following the procedure described in Example 12.

[6] = system: rat L-NAME-induced hypertension; assay: In vivo tolerance evaluation, L-NAME-induced hypertension after 5-day oral treatment; details: 5-ISMN 30 mg/kg; for Delta vs basal (mmHg): peak effect 1 hour
Protocol: as §2
To investigate whether the compound (6) induced nitrate tolerance, as observed for most of the drugs belonging to the nitrate class, the L-NAME-induced hypertension rat model described in Example 7 was performed following a repeated oral treatment. Rats were orally treated for 5 days with vehicle, compound (6) (100 mg/kg) or 5-ISMN (30 mg/kg). […] The experiments were performed at the peak effect (1 hour for 5-ISMN and 3 hours for Compound (6)), results are reported in Table 3.

[7] = system: isolated aortas from rats; assay: Ex vivo tolerance evaluation, vascular response of isolated rat aortas; format: cell-based; details: for EC50 at 30 mg/kg: Rattus norvegicus, read-out: EC50 (μM), vascular response to 5-ISMN
Protocol: (§3) Thoracic aortas from male New Zealand rabbits or male Sprague Dawley (SD) were used. The aortas were placed immediately in Krebs-HEPES buffer (pH 7.4; composition mM: NaCl 130.0, KCl 3.7, NaHCO3 14.9, KH2PO4 1.2, MgSO4.7H2O 1.2, Glucose 11.0, HEPES 10.0, CaCl2.2H2O 1.6). Connective tissue was removed and aortas were cut into ring segments (4-5 mm in length). Each ring was placed in a 5 mL tissue bath filled with Krebs-HEPES buffer (37° C.) aerated with 95% O2 and 5% CO2 and was attached to a force transducer (Grass FT03), connected to a BIOPAC MP150 System for measurement of the isometric tension. Preparations were allowed to equilibrate for 1 h at a resting tension of 2 g for rabbit aortas and 1 g for rat aortas with changes of the buffer every 15 min. Then the rings were stimulated by exposure to 90 mM KCl (3 times) with intervening washings.
(§4) Rat aorta. After equilibration, rat aortas were precontracted with KCl (90 mM) and, when the contraction was stable, a cumulative concentration-response curve to acetylcholine (ACh, 0.01-100 μM) was added. After washout, the rings were precontracted again with KCl (90 mM). When a steady-state level of contraction was obtained, a cumulative concentration-response curve to the tested compounds (0.01-100 μM) was obtained.
(§5) Data analysis. Results are given as mean±SEM. Vascular responses are expressed as percentage relaxation and plotted vs concentration. The sensitivity of isolated aorta to different vasodilators is expressed as the concentration that elicited 50% of the maximal responses (EC50). Responses are quantified in terms of EC50 and Emax (maximal vasodilating effect) values, obtained from the concentration-response curve by nonlinear curve fitting, using GraphPad software.
Tolerance to nitrate was further investigated assessing the vascular effects of Compound (6) following repeated treatment compared with 5-ISMN. The vascular response to the compound itself was assessed on isolated aortas from rats orally treated for 5 days with Compound (6) (100 mg/kg). The vascular response was performed as described in Example 6.
Vascular responses were performed 1 h (ISMN) or 3 h (Compound (6)) after the last administration, the concentrations of tested compound that elicited the 50% of the maximal responses (EC50) are shown in Table 4.

[8] = system: endothelial-dependent vasodilation of rat aortas; assay: Endothelial dysfunction evaluation, vascular response to acetylcholine; format: cell-based; details: 5-ISMN 30 mg/kg; for Emax at 30 mg/kg: Rattus norvegicus, read-out: % relaxation (Emax), response to acetylcholine
Protocol: as §3, §4, §5
Endothelial-dependent vasodilation (vascular response to acetylcholine, ACh) was assessed following 5-day treatment with Compound (6) (100 mg/kg) or 5-ISMN (30 mg/kg). A relaxant response to ACh indicated the presence of a functional endothelium. The vascular response was performed as described in Example 6.

[9] = 60 min after topical administration
[10] = 120 min after topical administration
[11] = 30 min after topical administration
[12] = 300 min after topical administration
[13] = Method A (ADP-FeCl3 and NADPH), inhibition of TBARS production after 30 min

CCN[C@H]1C[C@H](C)S(=O)(=O)c2sc(S(N)(=O)=O)cc21 [Dorzolamide, dorzolamide]
ΔΔ (mmHg), IOP change versus vehicle and versus basal IOP [1, 9]: −6.9 ± 2.1 mmHg
ΔΔ (mmHg), IOP change versus vehicle and versus basal IOP [1, 10]: −6.7 ± 1.7 mmHg

O=C(O)/C=C/c1ccc(O)c(O)c1 [Caffeic acid]
IC50 ([2]; Method B (2.5 μM FeSO4)): 33 µM

COC1=C(OC)C(=O)C(CCCOCCO[N+](=O)[O-])=C(C)C1=O [Compound (20), 2-(3-(4,5-dimethoxy-2-methyl-3,6-dioxocyclohexa-1,4-dienyl)propoxy)ethyl nitrate]
ΔΔ (mmHg), IOP change versus vehicle and versus basal IOP [1, 9]: −18.9 ± 2.4 mmHg
ΔΔ (mmHg), IOP change versus vehicle and versus basal IOP [1, 10]: −9.1 ± 1.6 mmHg

CC(C)(C)NC[C@H](O)COc1nsnc1N1CCOCC1 [Timolol, timolol]
ΔΔ (mmHg), IOP change versus vehicle and versus basal IOP [1, 9]: −5.7 ± 1.4 mmHg
ΔΔ (mmHg), IOP change versus vehicle and versus basal IOP [1, 10]: −8.4 ± 1.2 mmHg
ΔΔ (mmHg), IOP change versus vehicle and versus IOP at basal [3, 11]: −0.4 ± 0.4 mmHg
ΔΔ (mmHg), IOP change versus vehicle and versus IOP at basal [3, 9]: −0.7 ± 0.4 mmHg
ΔΔ (mmHg), IOP change versus vehicle and versus IOP at basal [3, 10]: −0.9 ± 0.4 mmHg
ΔΔ (mmHg), IOP change versus vehicle and versus IOP at basal [3, 12]: −0.05 ± 0.4 mmHg

CC1=C(CCCCCCO[N+](=O)[O-])C(=O)c2ccccc2C1=O [Compound (23), 6-(3-methyl-1,4-dioxo-1,4-dihydronaphthalen-2-yl) hexyl nitrate]
IC50 [2, 13]: 1.4 µM

COc1ccc2[nH]cc(CCNC(C)=O)c2c1 [Melatonin]
IC50 [4]: 476 µM

CC1=NN(c2ccccc2)C(=O)C1 [Edavarone]
IC50 [4]: 17 µM

COC1=C(OC)C(=O)C(CCCCCCCCCCO)=C(C)C1=O [Idebenone]
IC50 [2, 13]: 1.6 µM

O=[N+]([O-])O[C@@H]1CO[C@H]2[C@@H]1OC[C@@H]2O [Compound 5-ISMN, isosorbide-5-mononitrate]
Delta vs basal (mmHg), systolic blood pressure ([5]; 1 hour): 10.5 ± 6.1 mmHg
Delta vs basal (mmHg), systolic blood pressure ([5]; 3 hours): 6.5 ± 2.4 mmHg
Delta vs basal (mmHg), systolic blood pressure ([5]; 6 hours): 51.2 ± 5.7 mmHg
Delta vs basal (mmHg), systolic blood pressure ([5]; 24 hours): 83 ± 9 mmHg
time over which L-NAME induced hypertension was counteracted after treatment ([5]; single oral administration, 5-ISMN 30 mg/kg, Compound (6) 100 mg/kg): 3 h
efficacy in preventing L-NAME-induced hypertension after 5-day oral treatment ([6]; compound (6) 100 mg/kg): did not maintain its efficacy
Delta vs basal (mmHg) ([6]; acute): 10.5 ± 6.1 mmHg
Delta vs basal (mmHg) ([6]; repeated (5 days oral)): 88 ± 11.5 mmHg
vascular sensitivity of aortas of treated animals to the compound itself versus vehicle/control arteries ([7]; 5-day oral treatment, 5-ISMN 30 mg/kg, Compound (6) 100 mg/kg): showed a reduced vascular response
EC50 at 30 mg/kg ([7]; 1 h): 20 ± 0.6 µM
EC50 at 30 mg/kg [7]: 127 ± 48 µM
effect on endothelial-dependent vasorelaxation (response to ACh) ([8]; 5-day treatment, Compound (6) 100 mg/kg): caused a reduced response to Ach
Emax at 30 mg/kg ([8]; 120 h, repeated (5-day treatment)): 78.2 ± 9.2%
Emax at 30 mg/kg ([8]; acute): 92.7 ± 4.3%
ΔΔ (mmHg), IOP change versus vehicle and versus basal IOP [1, 9]: −0.7 ± 2.9 mmHg
ΔΔ (mmHg), IOP change versus vehicle and versus basal IOP [1, 10]: −6.6 ± 1.8 mmHg
ΔΔ (mmHg), IOP change versus vehicle and versus IOP at basal [3, 11]: −1.5 ± 0.3 mmHg
ΔΔ (mmHg), IOP change versus vehicle and versus IOP at basal [3, 9]: −1.7 ± 0.4 mmHg
ΔΔ (mmHg), IOP change versus vehicle and versus IOP at basal [3, 10]: −0.6 ± 0.4 mmHg
ΔΔ (mmHg), IOP change versus vehicle and versus IOP at basal [3, 12]: −0.8 ± 0.4 mmHg

CC1=C(CCCOCCCO[N+](=O)[O-])C(=O)c2ccccc2C1=O [Compound (25), 3-(3-(3-methyl-1,4-dioxo-1,4-dihydronaphthalen-2-yl)propoxy)propyl nitrate]
ΔΔ (mmHg), IOP change versus vehicle and versus basal IOP [1, 9]: −11.5 ± 2.8 mmHg
ΔΔ (mmHg), IOP change versus vehicle and versus basal IOP [1, 10]: −10.2 ± 1.3 mmHg
